Measured values as given in US20250275993A1, “GLYCOSYLATION INHIBITORS AS THERAPEUTICS FOR STROKE” (The Regents of the University of California, priority 2022, published 2025).

Tests used:
[1] = test system: BCEC confluent monolayers; assay: BCEC scratch assay; assay type: cell-based, bovine
Procedure: BCECs (passage 6-10) and HUVEC (passage 6-8) were used in this assay. Cells were grown until about 80% confluency in 6-well plates, washed twice with PBS and then starved in serum-free DMEM (low Glucose, Hyclone) for 5 hrs before making a “scratch” using 1 ml tip. Cell monolayers were briefly washed once with serum-free media, followed by various treatments in media containing 1% FBS. 48 hrs later, the assay was stopped by adding 2 ml 4% paraformaldehyde. 20 min later, fixed cells were stained with 1 ml Crystal Violet (Sigma). Plates were washed gently under the running tap water and air-dried before taking pictures. Images were acquired by ZEISS Discovery […] microscopy equipped with […] camera. Quantification of wound closure was done using AxioVision LE Rel.4.4 software. Six images were taken for each sample and six measurements (in pixel) were made on each image using AxioVision LE Re1.4.4 software.

ischemic hindlimb = assay: Hindlimb ischemia model and evaluation of blood flow; assay type: in vivo, mouse; conditions: for blood vessel density vs H2O-treated control (CD31): 3 weeks post-ligation; for blood flow recovery one week after surgery: 20% ManN orally or 1 mg/ml Kif ip every other day, H2O group 25%
Procedure: The angiogenic effects of ManN and Kif in a mouse hindlimb ischemia model were assessed. The activity of ManN in a chronic ischemia model that might more specifically reflect its effects as an endothelial cell mitogen and a pro-angiogenic factor was assessed, and the hindlimb ischemia model in the mouse was considered. Several variants have been described, depending on which vessel is occluded. The variant chosen consists in ligation and excision of the femoral artery, which results in more severe ischemia compared to simple femoral artery ligation. Occlusion of two vessels produces more severe ischemia, but has the disadvantage of inducing severe pain and distress, as well as frequent ulcerations and necrosis in mice.
Oral administration of ManN was tested in this femoral artery ligation-excision model. Since Kif has been previously administered intraperitoneally for in vivo studies, this route was employed. Laser Doppler Perfusion Imaging (LDPI) was used as a non-invasive method to monitor time and extent of the blood flow recovery in the ischemic limb. Serial examination of blood flow was taken with LDPI and increment of the perfusion ratio of ischemic (ligated; left side) to non-ischemic (sham; right side) hindlimbs after ligation was used to indicate a recovery of blood flow. Starting immediately after surgery, mice were orally fed with 20% ManN or 1 mg/ml Kif ip every other day, as described in methods. One week after surgery, the perfusion ratio in H2O-fed group indicated a blood flow recovery of […], a value that is in good agreement with published data with the same type of lesion, in the same strain of mice.
C57BL/6 male mice (6-8 weeks old) were subjected to unilateral hindlimb surgery under anesthesia with ketamine/xylazine cocktail. Briefly, the left femoral artery was separated from the vein and nerve, ligated proximally, and excised. The right hindlimb served as control. Blood flow was measured by using a laser Doppler perfusion imager (PeriScan PSI; Perimed). Ischemic and nonischemic limb perfusion was measured before and after surgery and 1, 2 and 3 weeks later. After surgery, mice were randomly allocated to different groups (8 mice for each group). 200 μl of 20% ManN was orally administrated every other day from 3rd day after surgery. 200 μl of 1 mg/nil Kif was administrated through ip injection every other day. H2O was used as a vehicle control. The final blood flow values were expressed as the ratio of ischemic to nonischemic hindlimb perfusion from the same animal. Quantification of blood vessel area was carried out as described.

[2] = test system: bovine choroidal microvascular endothelial cells (BCEC); assay: BCEC proliferation assay (AlamarBlue / crystal violet); assay type: cell-based
Procedure: The effect of ManN on EC proliferation was assessed.
AlamarBlue detects mitochondria activity as an indication of cell viability which correlates with cell number at certain ranges.
Proliferation assays with BCECs and BRECs were performed. Log-phase growing BCECs or BRECs (passage <10) were trypsinized, re-suspended and seeded in 96-well plates (no coating) in low-glucose DMEM supplemented with 10% bovine calf serum, 2 mM glutamine, and antibiotics (growth medium), at a density of 1200-1500 cells per well in 200 μl volume. All reagents were added at the indicated final concentrations. After 3-6 days, cells were incubated with AlamarBlue for 4 hrs. Fluorescence was measured at 530 nm excitation wavelength and 590 nm emission wavelength. The experiments were repeated at least three times. […] 20% methanol or 0.05% DMSO served as negative controls. […] Human RMVECs and human adult DMVECs were split into Gelatin-coated 96 wells (2000 cells per well) in low glucose DMEM containing 10% FBS. 1200 cells/well was set up for proliferation assay in low glucose media containing 0.5% FBS. Data was collected at day 4 or 5. HUVEC (p7-10) were grown on gelatin-coated plate until it reached 70-80% confluency.
On the day of the assay, cells were dissociated with 0.05% trypsin, which was neutralized with 0.5% FBS-containing EBM. Cells were briefly spun and then re-suspended in 0.5% FBS-media. Cells were counted and plated in 96-well, 1000 cells/well. Triplicate wells were used for each treatment. Data were collected at day 3, and then cells were fixed in 4% paraformaldehyde for 15 min before adding crystal violet. Cell-covered areas were quantified after taking pictures by Image J software.

retinal vasculature = assay: Retinal neovascularization after intravitreal injection; assay type: in vivo, mouse; conditions: 500 ng ManN or Kif, 200 ng bFGF intravitreally; after seven days
Procedure: The effect of ManN and Kif on inducing retinal neovascularization was assessed. The findings in cultured eye-derived EC were extended to a suitable in vivo model system. The mouse retina has been used extensively over the past decades to study both physiological and pathological angiogenesis. To obtain a detailed description of the retinal vasculature, images from retinal flat mounts were processed for vascular area fraction (ratio of area covered by blood vessels to total retinal area). Using this model, the effects of ManN in retinal neovascularization were assessed. Kif was also tested in this model because it is a water-soluble inhibitor and its mechanism of glycosylation inhibition is well established. In addition, it shares with ManN the ability to activate ERK, AKT and stress pathways in BCEC (FIG. 7E).
Assessment of retinal angiogenesis following intravitreal administration was done. Briefly, 6-8 weeks old C57BL/6 male mice were randomly allocated to different groups and anesthetized with ketamine/Xylazine cocktail. The indicated amounts of ManN, Kif or bFGF (R&D systems, AF-233-NA) in 1 μl of PBS and PBS vehicle control were injected intravitreally with a 33-gauge Hamilton syringe. Seven days after injection, animals were euthanized. Eyes were then enucleated and fixed in 4% paraformaldehyde (PFA) for 30 mins. Retinas were separated and stained with anti-CD31 immunofluorescence (IF) to evidence the vasculature. Evaluations were performed by an investigator blinded to the treatment. For CD31 IF, rat anti-mouse antibody (BD Biosciences, CAT #550274) was diluted 1:100 and incubated overnight at 4° C. After 4-hour incubation with the Alexa Fluor-488-conjugated anti-rat antibody (Life Technologies, A11006), whole mounts were imaged via the 488 nm channel using AIR Confocal STORM super-resolution system (Nikon). Quantification of vascular density in choroids and retina was carried out by Image J. Each experiment was repeated three times with similar results, and each treatment group consists of 5 individual samples.

Row | Compound | gap closing in BCEC scratch assay by glycosylation inhibitors ([1]; over 48 hours relative to control) | blood vessel density vs H2O-treated control (CD31) (ischemic hindlimb) [times higher] | blood flow recovery one week after surgery (ischemic hindlimb) | BCEC proliferation by glycosylation inhibitors ([2]; 0.01 to 100 μM, 3 days, absence or presence of 5 ng/ml VEGF) | increase in density of retinal vessels vs PBS group (retinal vasculature) [%] | closure of the scratched area vs control ([1]; 40 μM ManN or 50 ng/ml of VEGF, after 48 hours) | additivity of ManN and VEGF in scratch assay ([1]; both ManN and VEGF) | additivity with VEGF in promoting BCEC proliferation ([2]; 5 ng/ml VEGF) | additivity with bFGF in promoting BCEC proliferation ([2]; 20 ng/ml bFGF, FIG. 11A) | shape of dose-response on BCEC proliferation ([2]; 0.5 μM to 1 mM, 5-6 days, with or without VEGF) | dose range with significant stimulatory effects on BCEC proliferation ([2]; BCEC) | maximal fold increase in EC-covered surface ([2]; ManN at 50 μM alone, crystal violet, FIG. 1A) [fold] | cytotoxicity in glucose-free media ([2]; as little as 4 μM ManN, even in the presence of VEGF) | additivity between ManN and VEGF in glucose-free media ([2]; glucose-free media)
1 | O=C1N[C@@H]2[C@@H](O)[C@@H](O)[C@H](O)[C@@H](CO)N2C1=O [Kif, Kifunensine, reference compound] | significant activity | 1.8 | ~47% | stimulated in a dose-dependent fashion | ~20 |  |  |  |  |  |  |  |  | 
2 | N[C@H](C=O)[C@@H](O)[C@H](O)[C@H](O)CO [ManN, 2-Amino-2-deoxy-D-mannose] |  | 2.3 | about 40% |  | ~30 | significantly accelerated BCEC migration and/or proliferation | additivity was observed | additive with VEGF in promoting BCEC proliferation | Additive effects | bell-shaped dose-response curve, with inhibition at higher concentrations | 5-500 UM | ~6.5 | significant cytotoxicity | abolished
